Source: ChEMBL document CHEMBL4507277

Columns and labels:
[1] = molecular target: Dual specificity mitogen-activated protein kinase kinase 4 (Homo sapiens) (UniProt P45985); details: Compound concentration 1000.0 nM
[2] = molecular target: Serine/threonine-protein kinase Chk1 (Homo sapiens) (UniProt O14757); details: Compound concentration 1000.0 nM
[3] = molecular target: Mu-type opioid receptor (Homo sapiens) (UniProt P35372); details: Compound concentration 10.0 uM
[4] = system: Leucine-rich repeat serine/threonine-protein kinase 2 (Homo sapiens), Q5S007 [G2019S]; details: Compound concentration 1000.0 nM
[5] = molecular target: TGF-beta receptor type-2 (Homo sapiens) (UniProt P37173); details: Compound concentration 1000.0 nM
[6] = molecular target: Serine/threonine-protein kinase PAK 3 (Homo sapiens) (UniProt O75914); details: Compound concentration 1000.0 nM
[7] = molecular target: Ankyrin repeat and protein kinase domain-containing protein 1 (Homo sapiens) (UniProt Q8NFD2); details: Compound concentration 1000.0 nM
[8] = molecular target: Serine/threonine-protein kinase RIO3 (Homo sapiens) (UniProt O14730); details: Compound concentration 1000.0 nM
[9] = molecular target: Ephrin type-A receptor 1 (Homo sapiens) (UniProt P21709); details: Compound concentration 1000.0 nM
[10] = molecular target: Rhodopsin kinase GRK7 (Homo sapiens) (UniProt Q8WTQ7); details: Compound concentration 1000.0 nM
[11] = molecular target: ALK tyrosine kinase receptor (Homo sapiens) (UniProt Q9UM73); details: Compound concentration 1000.0 nM
[12] = molecular target: Calcium/calmodulin-dependent protein kinase type II subunit gamma (Homo sapiens) (UniProt Q13555); details: Compound concentration 1000.0 nM
[13] = molecular target: Serine/threonine-protein kinase Nek10 (Homo sapiens) (UniProt Q6ZWH5); details: Compound concentration 1000.0 nM
[14] = molecular target: Rhodopsin kinase GRK1 (Homo sapiens) (UniProt Q15835); details: Compound concentration 1000.0 nM
[15] = molecular target: Serine/threonine-protein kinase ICK (Homo sapiens) (UniProt Q9UPZ9); details: Compound concentration 1000.0 nM
[16] = molecular target: Protein-tyrosine kinase 2-beta (Homo sapiens) (UniProt Q14289); details: Compound concentration 1000.0 nM
[17] = molecular target: Mitogen-activated protein kinase kinase kinase 9 (Homo sapiens) (UniProt P80192); details: Compound concentration 1000.0 nM
[18] = molecular target: Cyclin-dependent kinase 5 (Homo sapiens) (UniProt Q00535); details: Compound concentration 1000.0 nM
[19] = molecular target: Serine/threonine-protein kinase SBK1 (Homo sapiens) (UniProt Q52WX2); details: Compound concentration 1000.0 nM
[20] = system: Receptor-type tyrosine-protein kinase FLT3 (Homo sapiens), P36888 [UNDEFINED MUTATION]; details: Compound concentration 1000.0 nM
[21] = molecular target: Cyclin-dependent kinase 8 (Homo sapiens) (UniProt P49336); details: Compound concentration 1000.0 nM
[22] = molecular target: D(3) dopamine receptor (Homo sapiens) (UniProt P35462); details: Compound concentration 10.0 uM
[23] = system: Receptor-type tyrosine-protein kinase FLT3 (Homo sapiens), P36888 [R834Q]; details: Compound concentration 1000.0 nM
[24] = molecular target: MAP kinase-interacting serine/threonine-protein kinase 2 (Homo sapiens) (UniProt Q9HBH9); details: Compound concentration 1000.0 nM
[25] = molecular target: Serine/threonine-protein kinase PLK3 (Homo sapiens) (UniProt Q9H4B4); details: Compound concentration 1000.0 nM
[26] = system: Phosphatidylinositol 4,5-bisphosphate 3-kinase catalytic subunit alpha isoform (Homo sapiens), P42336 [E542K]; details: Compound concentration 1000.0 nM
[27] = molecular target: Ribosomal protein S6 kinase alpha-1 (Homo sapiens) (UniProt Q15418); details: Compound concentration 1000.0 nM
[28] = molecular target: Serine/threonine-protein kinase MAK (Homo sapiens) (UniProt P20794); details: Compound concentration 1000.0 nM
[29] = molecular target: Dual specificity mitogen-activated protein kinase kinase 2 (Homo sapiens) (UniProt P36507); details: Compound concentration 1000.0 nM
[30] = molecular target: Mitogen-activated protein kinase kinase kinase kinase 5 (Homo sapiens) (UniProt Q9Y4K4); details: Compound concentration 1000.0 nM
[31] = molecular target: Muscarinic acetylcholine receptor M2 (Homo sapiens) (UniProt P08172); details: Compound concentration 10.0 uM
[32] = system: Epidermal growth factor receptor (Homo sapiens), P00533 [UNDEFINED MUTATION]; details: Compound concentration 1000.0 nM
[33] = system: Mast/stem cell growth factor receptor Kit (Homo sapiens), P10721 [L576P]; details: Compound concentration 1000.0 nM
[34] = molecular target: Cyclin-dependent kinase-like 3 (Homo sapiens) (UniProt Q8IVW4); details: Compound concentration 1000.0 nM
[35] = molecular target: Calcium/calmodulin-dependent protein kinase type IV (Homo sapiens) (UniProt Q16566); details: Compound concentration 1000.0 nM
[36] = molecular target: Dual specificity protein kinase CLK3 (Homo sapiens) (UniProt P49761); details: Compound concentration 1000.0 nM
[37] = molecular target: Phosphatidylinositol 5-phosphate 4-kinase type-2 gamma (Homo sapiens) (UniProt Q8TBX8); details: Compound concentration 1000.0 nM
[38] = molecular target: Serine/threonine-protein kinase WNK4 (Homo sapiens) (UniProt Q96J92); details: Compound concentration 1000.0 nM
[39] = system: Epidermal growth factor receptor (Homo sapiens), P00533 [UNDEFINED MUTATION]; details: Compound concentration 1000.0 nM; remark: listed apart in the source
[40] = molecular target: Serine/threonine-protein kinase N1 (Homo sapiens) (UniProt Q16512); details: Compound concentration 1000.0 nM
[41] = molecular target: Casein kinase I isoform epsilon (Homo sapiens) (UniProt P49674); details: Compound concentration 1000.0 nM
[42] = molecular target: Ephrin type-A receptor 4 (Homo sapiens) (UniProt P54764); details: Compound concentration 1000.0 nM
[43] = molecular target: Serine/threonine-protein kinase TAO2 (Homo sapiens) (UniProt Q9UL54); details: Compound concentration 1000.0 nM
[44] = molecular target: Serine/threonine-protein kinase 26 (Homo sapiens) (UniProt Q9P289); details: Compound concentration 1000.0 nM

Chain of Epidermal growth factor receptor (Homo sapiens), P00533 [UNDEFINED MUTATION] (P00533 whole entry, looked up, stated change not applied): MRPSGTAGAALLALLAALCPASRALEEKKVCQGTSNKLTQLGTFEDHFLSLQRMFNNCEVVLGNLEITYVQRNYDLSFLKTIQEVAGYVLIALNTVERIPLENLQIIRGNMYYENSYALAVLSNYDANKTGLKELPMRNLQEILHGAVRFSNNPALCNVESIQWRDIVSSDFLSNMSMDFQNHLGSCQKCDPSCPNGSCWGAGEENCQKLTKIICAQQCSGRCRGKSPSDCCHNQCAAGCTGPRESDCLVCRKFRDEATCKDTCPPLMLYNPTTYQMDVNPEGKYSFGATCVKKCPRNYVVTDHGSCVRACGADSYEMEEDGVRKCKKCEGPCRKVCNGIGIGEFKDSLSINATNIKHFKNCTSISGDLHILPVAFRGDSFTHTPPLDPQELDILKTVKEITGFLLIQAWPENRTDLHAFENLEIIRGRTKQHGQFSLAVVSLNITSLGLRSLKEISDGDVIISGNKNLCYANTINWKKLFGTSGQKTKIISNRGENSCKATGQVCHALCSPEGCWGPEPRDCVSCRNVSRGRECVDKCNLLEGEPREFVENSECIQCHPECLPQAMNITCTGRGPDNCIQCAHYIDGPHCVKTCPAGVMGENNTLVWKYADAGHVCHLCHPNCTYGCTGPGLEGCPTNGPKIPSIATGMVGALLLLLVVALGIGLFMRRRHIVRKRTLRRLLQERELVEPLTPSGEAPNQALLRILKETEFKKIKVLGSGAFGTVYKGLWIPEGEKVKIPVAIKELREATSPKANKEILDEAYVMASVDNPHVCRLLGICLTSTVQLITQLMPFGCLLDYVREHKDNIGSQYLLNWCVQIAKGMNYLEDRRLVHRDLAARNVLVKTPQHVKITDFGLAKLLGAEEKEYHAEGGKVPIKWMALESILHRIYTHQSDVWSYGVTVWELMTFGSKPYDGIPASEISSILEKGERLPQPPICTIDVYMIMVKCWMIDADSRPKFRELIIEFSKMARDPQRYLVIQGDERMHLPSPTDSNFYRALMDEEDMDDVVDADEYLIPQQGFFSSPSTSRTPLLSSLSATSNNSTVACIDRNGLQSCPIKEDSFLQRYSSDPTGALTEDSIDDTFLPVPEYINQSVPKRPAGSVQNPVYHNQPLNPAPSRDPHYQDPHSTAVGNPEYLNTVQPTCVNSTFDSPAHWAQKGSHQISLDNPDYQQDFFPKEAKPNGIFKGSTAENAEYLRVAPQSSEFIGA
Chain of MAP kinase-interacting serine/threonine-protein kinase 2 (Homo sapiens) (Q9HBH9 whole entry, looked up): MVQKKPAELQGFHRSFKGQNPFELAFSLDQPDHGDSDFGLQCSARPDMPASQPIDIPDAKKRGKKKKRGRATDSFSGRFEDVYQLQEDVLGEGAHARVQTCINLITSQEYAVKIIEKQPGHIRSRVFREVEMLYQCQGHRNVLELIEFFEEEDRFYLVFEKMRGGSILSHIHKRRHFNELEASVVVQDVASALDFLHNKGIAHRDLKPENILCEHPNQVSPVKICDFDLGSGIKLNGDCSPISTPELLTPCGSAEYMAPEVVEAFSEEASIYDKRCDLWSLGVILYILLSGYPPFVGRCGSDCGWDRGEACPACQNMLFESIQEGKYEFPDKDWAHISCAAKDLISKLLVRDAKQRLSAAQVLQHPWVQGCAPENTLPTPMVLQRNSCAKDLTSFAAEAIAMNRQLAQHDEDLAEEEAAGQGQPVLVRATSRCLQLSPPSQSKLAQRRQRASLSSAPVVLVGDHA
Chain of Ankyrin repeat and protein kinase domain-containing protein 1 (Homo sapiens) (Q8NFD2 whole entry, the tested form may be a part): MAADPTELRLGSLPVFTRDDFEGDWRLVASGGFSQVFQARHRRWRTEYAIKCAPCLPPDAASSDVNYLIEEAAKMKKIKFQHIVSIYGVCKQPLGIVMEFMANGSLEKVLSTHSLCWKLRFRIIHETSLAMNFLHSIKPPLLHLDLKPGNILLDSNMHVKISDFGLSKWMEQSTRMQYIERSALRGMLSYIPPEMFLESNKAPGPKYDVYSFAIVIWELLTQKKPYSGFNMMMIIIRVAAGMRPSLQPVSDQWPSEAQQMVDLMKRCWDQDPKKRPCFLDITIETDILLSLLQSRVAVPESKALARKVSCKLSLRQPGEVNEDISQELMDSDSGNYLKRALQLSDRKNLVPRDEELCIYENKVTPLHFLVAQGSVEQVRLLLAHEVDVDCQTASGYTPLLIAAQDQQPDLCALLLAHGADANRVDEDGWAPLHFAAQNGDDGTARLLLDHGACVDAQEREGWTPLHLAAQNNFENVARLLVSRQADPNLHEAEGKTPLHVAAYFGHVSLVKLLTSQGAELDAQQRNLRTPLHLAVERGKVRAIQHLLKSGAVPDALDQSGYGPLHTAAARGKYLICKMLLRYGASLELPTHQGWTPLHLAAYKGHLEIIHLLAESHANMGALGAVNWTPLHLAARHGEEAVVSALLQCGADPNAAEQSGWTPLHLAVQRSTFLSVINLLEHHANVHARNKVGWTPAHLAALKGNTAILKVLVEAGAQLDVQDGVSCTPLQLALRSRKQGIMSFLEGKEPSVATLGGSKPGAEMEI
Chain of Dual specificity mitogen-activated protein kinase kinase 4 (Homo sapiens) (P45985 whole entry): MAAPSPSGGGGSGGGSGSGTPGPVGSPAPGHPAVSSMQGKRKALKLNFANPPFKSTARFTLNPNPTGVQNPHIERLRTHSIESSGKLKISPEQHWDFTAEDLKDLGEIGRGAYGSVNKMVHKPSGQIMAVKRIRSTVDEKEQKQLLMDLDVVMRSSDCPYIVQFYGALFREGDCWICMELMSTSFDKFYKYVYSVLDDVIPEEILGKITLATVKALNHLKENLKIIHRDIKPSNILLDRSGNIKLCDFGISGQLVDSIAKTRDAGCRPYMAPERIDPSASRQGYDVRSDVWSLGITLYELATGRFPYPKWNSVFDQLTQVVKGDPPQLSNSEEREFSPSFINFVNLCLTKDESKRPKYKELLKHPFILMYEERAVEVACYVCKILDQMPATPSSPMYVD
Chain of Phosphatidylinositol 5-phosphate 4-kinase type-2 gamma (Homo sapiens) (Q8TBX8 whole entry): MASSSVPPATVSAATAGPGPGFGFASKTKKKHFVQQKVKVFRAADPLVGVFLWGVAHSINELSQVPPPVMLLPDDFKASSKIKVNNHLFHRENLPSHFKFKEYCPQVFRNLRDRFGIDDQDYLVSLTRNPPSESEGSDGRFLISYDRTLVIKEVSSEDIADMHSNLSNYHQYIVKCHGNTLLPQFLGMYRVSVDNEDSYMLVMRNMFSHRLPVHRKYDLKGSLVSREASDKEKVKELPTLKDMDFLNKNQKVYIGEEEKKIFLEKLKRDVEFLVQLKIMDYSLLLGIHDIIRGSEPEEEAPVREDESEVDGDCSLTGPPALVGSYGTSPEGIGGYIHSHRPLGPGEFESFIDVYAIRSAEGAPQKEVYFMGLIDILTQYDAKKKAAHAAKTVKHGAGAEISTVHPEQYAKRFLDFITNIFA
Chain of Dual specificity protein kinase CLK3 (Homo sapiens) (P49761 whole entry, looked up): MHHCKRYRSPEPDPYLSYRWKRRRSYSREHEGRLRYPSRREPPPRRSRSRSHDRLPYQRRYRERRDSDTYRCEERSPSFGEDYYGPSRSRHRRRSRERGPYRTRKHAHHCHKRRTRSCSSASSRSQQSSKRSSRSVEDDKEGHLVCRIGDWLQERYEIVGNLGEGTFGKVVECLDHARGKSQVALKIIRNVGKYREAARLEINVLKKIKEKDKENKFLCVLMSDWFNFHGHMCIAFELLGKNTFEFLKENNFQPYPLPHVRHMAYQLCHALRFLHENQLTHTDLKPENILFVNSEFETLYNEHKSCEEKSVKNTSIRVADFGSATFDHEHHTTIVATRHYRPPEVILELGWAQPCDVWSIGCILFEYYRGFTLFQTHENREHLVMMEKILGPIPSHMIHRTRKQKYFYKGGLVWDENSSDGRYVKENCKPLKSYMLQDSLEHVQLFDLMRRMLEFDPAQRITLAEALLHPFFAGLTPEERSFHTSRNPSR
Chain of Rhodopsin kinase GRK1 (Homo sapiens) (Q15835 whole entry): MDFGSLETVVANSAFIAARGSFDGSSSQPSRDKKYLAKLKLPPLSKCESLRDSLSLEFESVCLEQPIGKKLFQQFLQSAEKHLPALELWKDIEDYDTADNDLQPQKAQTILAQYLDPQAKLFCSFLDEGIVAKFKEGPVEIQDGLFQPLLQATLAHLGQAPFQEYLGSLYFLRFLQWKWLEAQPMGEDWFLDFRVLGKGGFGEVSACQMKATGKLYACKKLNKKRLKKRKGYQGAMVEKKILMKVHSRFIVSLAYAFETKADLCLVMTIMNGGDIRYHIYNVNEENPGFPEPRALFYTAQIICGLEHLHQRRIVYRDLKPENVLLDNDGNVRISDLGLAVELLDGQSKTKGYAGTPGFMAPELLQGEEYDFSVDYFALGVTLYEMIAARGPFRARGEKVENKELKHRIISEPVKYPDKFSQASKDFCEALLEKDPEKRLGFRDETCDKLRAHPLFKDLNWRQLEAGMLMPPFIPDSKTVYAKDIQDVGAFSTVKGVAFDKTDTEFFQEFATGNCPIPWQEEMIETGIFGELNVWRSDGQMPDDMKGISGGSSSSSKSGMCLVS
Chain of Cyclin-dependent kinase-like 3 (Homo sapiens) (Q8IVW4 whole entry, looked up): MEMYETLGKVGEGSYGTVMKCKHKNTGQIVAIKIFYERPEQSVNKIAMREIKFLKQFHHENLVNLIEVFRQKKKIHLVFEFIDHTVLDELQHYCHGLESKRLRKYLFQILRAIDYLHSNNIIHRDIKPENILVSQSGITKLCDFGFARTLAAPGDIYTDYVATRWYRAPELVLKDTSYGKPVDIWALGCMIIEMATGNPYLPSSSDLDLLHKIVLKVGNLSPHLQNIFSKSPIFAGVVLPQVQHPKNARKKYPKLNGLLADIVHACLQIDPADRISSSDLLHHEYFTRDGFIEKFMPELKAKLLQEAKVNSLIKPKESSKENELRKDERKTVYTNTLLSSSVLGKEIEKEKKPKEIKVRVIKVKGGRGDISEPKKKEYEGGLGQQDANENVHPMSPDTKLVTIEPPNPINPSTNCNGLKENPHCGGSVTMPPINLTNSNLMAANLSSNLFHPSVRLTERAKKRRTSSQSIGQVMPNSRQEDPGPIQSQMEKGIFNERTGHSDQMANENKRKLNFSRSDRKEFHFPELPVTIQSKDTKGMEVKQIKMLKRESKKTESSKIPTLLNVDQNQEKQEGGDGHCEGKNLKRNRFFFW

CCS(=O)(=O)c1cc2cc(C[C@@](O)(CC(C)(C)c3ccc(F)cc3C(N)=O)C(F)(F)F)[nH]c2cn1
inactive: residual activity [1] 100% | residual activity [2] 100% | inhibition [3] 7.98% | residual activity [4] 100% | residual activity [5] 100% | residual activity [6] 100% | residual activity [7] 70% | residual activity [8] 74% | residual activity [9] 99% | residual activity [10] 95% | residual activity [11] 100% | residual activity [12] 77% | residual activity [13] 88% | residual activity [14] 100% | residual activity [15] 97% | residual activity [16] 100% | residual activity [17] 96% | residual activity [18] 100% | residual activity [19] 94% | residual activity [20] 73% | residual activity [21] 100% | inhibition [22] 1.8% | residual activity [23] 78% | residual activity [24] 87% | residual activity [25] 99% | residual activity [26] 74% | residual activity [27] 100% | residual activity [28] 100% | residual activity [29] 67% | residual activity [30] 99% | inhibition [31] -8.82% | residual activity [32] 94% | residual activity [33] 100% | residual activity [34] 90% | residual activity [35] 100% | residual activity [36] 100% | residual activity [37] 100% | residual activity [38] 84% | residual activity [39] 93% | residual activity [40] 85% | residual activity [41] 97% | residual activity [42] 95% | residual activity [43] 76% | residual activity [44] 91%

CCS(=O)(=O)c1cc2cc(C[C@](O)(CC(C)(C)c3ccc(F)cc3C(N)=O)C(F)(F)F)[nH]c2cn1
inactive: residual activity [1] 100% | residual activity [2] 97% | inhibition [3] 7.51% | residual activity [4] 100% | residual activity [5] 100% | residual activity [6] 100% | residual activity [7] 89% | residual activity [8] 91% | residual activity [9] 100% | residual activity [10] 100% | residual activity [11] 100% | residual activity [12] 100% | residual activity [13] 100% | residual activity [14] 100% | residual activity [15] 100% | residual activity [16] 100% | residual activity [17] 98% | residual activity [18] 100% | residual activity [19] 87% | residual activity [20] 86% | residual activity [21] 100% | inhibition [22] 7.81% | residual activity [23] 100% | residual activity [24] 100% | residual activity [25] 93% | residual activity [26] 66% | residual activity [27] 100% | residual activity [28] 100% | residual activity [29] 95% | residual activity [30] 100% | inhibition [31] -0.48% | residual activity [32] 89% | residual activity [33] 83% | residual activity [34] 100% | residual activity [35] 100% | residual activity [36] 100% | residual activity [37] 100% | residual activity [38] 100% | residual activity [39] 100% | residual activity [40] 100% | residual activity [41] 95% | residual activity [42] 100% | residual activity [43] 85% | residual activity [44] 94%
